This is an account of results in patent publication US12723063B2, “GIPR-agonist compounds” (Eli Lilly and Company, priority 2019, dated 2026).

*1 amine or outer side, *2 acyl side, *3 side chain or, on linkers, in order; H or OH if unused. Where a SMILES comes first, the peptide text is derived from it. Side-chain parts run from the residue outwards. [ ]: non-standard residue; d: D form. The star is where a group is joined. C20 diacid = O=C(O)CCCCCCCCCCCCCCCCCCC(=O)*; C18 diacid = O=C(O)CCCCCCCCCCCCCCCCC(=O)*; γGlu = O=C(O)[C@H](CCC(=O)[*:2])N[*:1]; αMeF = C[C@](N)(Cc1ccccc1)C(=O)O; 4Pal = N[C@@H](Cc1ccncc1)C(=O)O; αMeL = CC(C)C[C@](C)(N)C(=O)O; Iva = CC[C@](C)(N)C(=O)O; AEEA = NCCOCCOCC(=O)O; Aib = CC(C)(N)C(=O)O

One test addresses T1, human GcgR (Homo sapiens, UniProt P47871).
T1 construct: expressed in transfected cells; crude membranes
Kind of test: [125I]-Glucagon binding, SPA with WGA beads, 0.1% bacitracin. The note with it: geometric mean, read-out: hGcgR Ki. In a few lines: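 SPA competition binding with WGA beads on crude membranes from HEK293 cells stably expressing hGcgR. Buffer: 25 mM HEPES pH 7.4, 2.5 mM CaCl2, 1 mM MgCl2, 0.1% bacitracin, 0.003% Tween-20; 10-point 3-fold dilutions, NSB with 1 μM Gcg.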

The target of another test is T2, human GLP-1R (Homo sapiens, UniProt P43220).
T2 construct: expressed in transfected cells; crude membranes
T2 sequence (P43220 24-463): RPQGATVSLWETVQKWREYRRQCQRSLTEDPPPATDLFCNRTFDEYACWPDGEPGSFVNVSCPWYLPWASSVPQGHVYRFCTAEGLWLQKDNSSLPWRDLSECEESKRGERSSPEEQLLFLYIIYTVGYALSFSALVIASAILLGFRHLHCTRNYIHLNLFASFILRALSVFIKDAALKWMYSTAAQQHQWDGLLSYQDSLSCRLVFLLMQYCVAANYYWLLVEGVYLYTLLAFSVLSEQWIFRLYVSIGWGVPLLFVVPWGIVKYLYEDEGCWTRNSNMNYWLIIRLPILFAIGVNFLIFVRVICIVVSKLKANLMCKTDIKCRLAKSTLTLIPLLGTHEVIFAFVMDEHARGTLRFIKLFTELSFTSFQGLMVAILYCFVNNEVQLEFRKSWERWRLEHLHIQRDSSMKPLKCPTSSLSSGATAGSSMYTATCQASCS
Kind of test: [125I]-GLP-1 binding, SPA with WGA beads, 0.1% bacitracin. As to conditions: geometric mean, read-out: hGLP1R Ki. In a few lines:
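Binding buffer was 25 mM HEPES pH 7.4 with 2.5 mM CaCl2, 1 mM MgCl2, 0.1% (w/v) bacitracin, 0.003% Tween-20 and EDTA-free protease inhibitors. Four-parameter regression gave IC50, converted to Ki (geometric mean, SEM, n independent days).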

Another test deals with T3, human GIPR (Homo sapiens, UniProt P48546).
T3 construct: expressed in transfected cells; crude membranes
T3 sequence (P48546 22-466): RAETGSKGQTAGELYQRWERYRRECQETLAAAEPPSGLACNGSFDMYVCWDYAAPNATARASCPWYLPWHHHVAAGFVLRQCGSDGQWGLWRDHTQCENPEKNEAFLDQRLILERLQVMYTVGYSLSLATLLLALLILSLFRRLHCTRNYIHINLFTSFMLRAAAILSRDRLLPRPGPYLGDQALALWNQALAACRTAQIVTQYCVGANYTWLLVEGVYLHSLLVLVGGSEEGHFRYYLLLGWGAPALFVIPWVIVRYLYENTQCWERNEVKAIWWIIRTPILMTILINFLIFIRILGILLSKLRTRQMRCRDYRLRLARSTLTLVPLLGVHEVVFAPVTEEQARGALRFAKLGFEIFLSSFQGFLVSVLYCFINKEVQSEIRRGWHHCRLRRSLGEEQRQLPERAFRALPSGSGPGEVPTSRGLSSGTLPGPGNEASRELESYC
Kind of test: [125I]-GIP binding, SPA with WGA beads, 0.1% bacitracin. As to conditions: geometric mean, read-out: hGIPR Ki. In a few lines:
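Ki values are geometric means (SEM, n independent days), derived from four-parameter nonlinear regression of IC50. Membranes came from hGIPR-expressing CHO cells.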

T1 sequence (P47871 26-477): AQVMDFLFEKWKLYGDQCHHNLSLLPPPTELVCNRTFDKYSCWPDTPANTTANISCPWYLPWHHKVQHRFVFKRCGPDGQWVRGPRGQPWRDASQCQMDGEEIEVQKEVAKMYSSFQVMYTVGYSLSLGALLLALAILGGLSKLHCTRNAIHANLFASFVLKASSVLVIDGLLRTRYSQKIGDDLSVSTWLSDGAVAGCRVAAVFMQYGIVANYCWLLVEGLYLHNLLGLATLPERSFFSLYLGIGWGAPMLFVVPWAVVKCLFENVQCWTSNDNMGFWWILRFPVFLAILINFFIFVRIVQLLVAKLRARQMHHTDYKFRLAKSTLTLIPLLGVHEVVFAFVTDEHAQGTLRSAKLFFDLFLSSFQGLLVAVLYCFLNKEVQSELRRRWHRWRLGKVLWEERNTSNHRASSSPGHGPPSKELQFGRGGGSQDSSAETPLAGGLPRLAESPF

The term Ki denotes the equilibrium dissociation constant of an inhibitor or competing ligand from its target. For the molecule `CC[C@H](C)[C@H](NC(=O)[C@H](CO)NC(=O)[C@H](Cc1ccc(O)cc1)NC(=O)[C@H](CC(=O)O)NC(=O)[C@H](CO)NC(=O)[C@@H](NC(=O)[C@](C)(CC)NC(=O)[C@@H](NC(=O)CNC(=O)[C@H](CCC(=O)O)NC(=O)C(C)(C)NC(=O)[C@@H](N)Cc1ccc(O)cc1)[C@@H](C)O)[C@@H](C)CC)C(=O)N[C@@](C)(CC(C)C)C(=O)N[C@@H](CC(C)C)C(=O)N[C@@H](CC(=O)O)C(=O)N[C@@H](CCCCN)C(=O)N[C@@H](CCCCNC(=O)COCCOCCNC(=O)COCCOCCNC(=O)CC[C@H](NC(=O)CCCCCCCCCCCCCCCCCCC(=O)O)C(=O)O)C(=O)N[C@@H](Cc1c[nH]cn1)C(=O)N[C@@H](CCC(N)=O)C(=O)NC(C)(C)C(=O)N[C@@H](CC(=O)O)C(=O)N[C@@H](Cc1ccccc1)C(=O)N[C@H](C(=O)N[C@@H](CCC(=O)O)C(=O)N[C@@H](Cc1ccncc1)C(=O)N[C@@H](CC(C)C)C(=O)N[C@@H](CC(C)C)C(=O)N[C@@H](CCC(=O)O)C(=O)NCC(=O)NCC(=O)N1CCC[C@H]1C(=O)N[C@@H](CO)C(=O)N[C@@H](CO)C(=O)NCC(=O)N[C@@H](C)C(=O)N1CCC[C@H]1C(=O)N1CCC[C@H]1C(=O)N1CCC[C@H]1C(=O)N[C@@H](CO)C(N)=O)C(C)C` [Example 74] (H-Y[Aib]EGT[Iva]ISDYSI[αMeL]LDKK([AEEA-AEEA-γGlu-C20 diacid])HQ[Aib]DFVE[4Pal]LLEGGPSSGAPPPS-NH2), the values for the Ki at human GcgR, at human GLP-1R and on human GIPR were 511 nM, 395 nM and 0.0287 nM, respectively.

As for `CC[C@H](C)[C@H](NC(=O)[C@H](CCCCN)NC(=O)[C@H](CC(=O)O)NC(=O)[C@H](CC(C)C)NC(=O)[C@](C)(CC(C)C)NC(=O)[C@@H](NC(=O)[C@H](CO)NC(=O)[C@H](Cc1ccc(O)cc1)NC(=O)[C@H](CC(=O)O)NC(=O)[C@H](CO)NC(=O)[C@@H](NC(=O)[C@H](Cc1ccccc1)NC(=O)[C@@H](NC(=O)CNC(=O)[C@H](CCC(=O)O)NC(=O)C(C)(C)NC(=O)[C@@H](N)Cc1ccc(O)cc1)[C@@H](C)O)[C@@H](C)CC)[C@@H](C)CC)C(=O)N[C@@H](CCCNC(=N)N)C(=O)N[C@@H](CCC(N)=O)C(=O)NC(C)(C)C(=O)N[C@@H](CC(=O)O)C(=O)N[C@@H](Cc1ccccc1)C(=O)N[C@H](C(=O)N[C@@H](CCC(=O)O)C(=O)N[C@@H](Cc1ccc(O)cc1)C(=O)N[C@@H](CCCCNC(=O)COCCOCCNC(=O)COCCOCCNC(=O)CC[C@H](NC(=O)CCCCCCCCCCCCCCCCCCC(=O)O)C(=O)O)C(=O)N[C@@H](CC(C)C)C(=O)N[C@@H](CCC(=O)O)C(=O)NCC(=O)NCC(=O)N1CCC[C@H]1C(=O)N[C@@H](CO)C(=O)N[C@@H](CO)C(=O)NCC(=O)N[C@@H](C)C(=O)N1CCC[C@H]1C(=O)N1CCC[C@H]1C(=O)N1CCC[C@H]1C(=O)N[C@@H](CO)C(N)=O)C(C)C` [Example 115] (H-Y[Aib]EGTFISDYSI[αMeL]LDKIRQ[Aib]DFVEYK([AEEA-AEEA-γGlu-C20 diacid])LEGGPSSGAPPPS-NH2), the values for the Ki at human GcgR, on human GLP-1R and on human GIPR were 373 nM, more than 912 nM and 0.0997 nM, respectively.

With `CC[C@H](C)[C@H](NC(=O)[C@H](CO)NC(=O)[C@H](Cc1ccc(O)cc1)NC(=O)[C@H](CC(=O)O)NC(=O)[C@H](CO)NC(=O)[C@@H](NC(=O)[C@H](Cc1ccccc1)NC(=O)[C@@H](NC(=O)CNC(=O)[C@H](CCC(=O)O)NC(=O)[C@@H](C)NC(=O)[C@@H](N)Cc1ccc(O)cc1)[C@@H](C)O)[C@@H](C)CC)C(=O)N[C@@H](CC(C)C)C(=O)N[C@@H](CC(C)C)C(=O)N[C@@H](CC(=O)O)C(=O)N[C@@H](CCCCN)C(=O)N[C@@H](CCCCNC(=O)COCCOCCNC(=O)COCCOCCNC(=O)CC[C@H](NC(=O)CCCCCCCCCCCCCCCCC(=O)O)C(=O)O)C(=O)N[C@@H](C)C(=O)N[C@@H](CCC(N)=O)C(=O)NC(C)(C)C(=O)N[C@@H](CC(=O)O)C(=O)N[C@@H](Cc1ccccc1)C(=O)N[C@H](C(=O)N[C@@H](CC(N)=O)C(=O)N[C@@H](Cc1ccncc1)C(=O)N[C@@H](CC(C)C)C(=O)N[C@@H](CC(C)C)C(=O)N[C@@H](C)C(=O)N[C@@H](CCC(N)=O)C(=O)NCC(=O)N1CCC[C@H]1C(=O)N[C@@H](CO)C(=O)N[C@@H](CO)C(=O)NCC(=O)N[C@@H](C)C(=O)N1CCC[C@H]1C(=O)N1CCC[C@H]1C(=O)N1CCC[C@H]1C(=O)N[C@@H](CO)C(N)=O)C(C)C` [Example 18] (H-Y[dA]EGTFISDYSILLDKK([AEEA-AEEA-γGlu-C18 diacid])AQ[Aib]DFVN[4Pal]LLAQGPSSGAPPPS-NH2), the Ki at human GcgR stood at 463 nM; at human GLP-1R, 158 nM; at human GIPR, 0.0331 nM.

As for `CC[C@H](C)[C@H](NC(=O)[C@H](CO)NC(=O)[C@H](Cc1ccc(O)cc1)NC(=O)[C@H](CC(=O)O)NC(=O)[C@H](CO)NC(=O)[C@@H](NC(=O)[C@H](Cc1ccccc1)NC(=O)[C@@H](NC(=O)CNC(=O)[C@H](CCC(=O)O)NC(=O)[C@@H](C)NC(=O)[C@@H](N)Cc1ccc(O)cc1)[C@@H](C)O)[C@@H](C)CC)C(=O)N[C@@H](CC(C)C)C(=O)N[C@@H](CC(C)C)C(=O)N[C@@H](CC(=O)O)C(=O)N[C@@H](CCCCN)C(=O)N[C@@H](CCCCNC(=O)COCCOCCNC(=O)COCCOCCNC(=O)CC[C@H](NC(=O)CCCCCCCCCCCCCCCCCCC(=O)O)C(=O)O)C(=O)N[C@@H](Cc1c[nH]cn1)C(=O)N[C@@H](CCC(N)=O)C(=O)N[C@@H](CCC(N)=O)C(=O)N[C@@H](CCC(=O)O)C(=O)N[C@@H](Cc1ccccc1)C(=O)N[C@H](C(=O)N[C@@H](CC(N)=O)C(=O)N[C@@H](Cc1c[nH]c2ccccc12)C(=O)N[C@@H](CC(C)C)C(=O)N[C@@H](CC(C)C)C(=O)N[C@@H](C)C(=O)N[C@@H](CCC(N)=O)C(=O)NCC(=O)N1CCC[C@H]1C(=O)N[C@@H](CO)C(=O)N[C@@H](CO)C(=O)NCC(=O)N[C@@H](C)C(=O)N1CCC[C@H]1C(=O)N1CCC[C@H]1C(=O)N1CCC[C@H]1C(=O)N[C@@H](CO)C(N)=O)C(C)C` [Example 13] (H-Y[dA]EGTFISDYSILLDKK([AEEA-AEEA-γGlu-C20 diacid])HQQEFVNWLLAQGPSSGAPPPS-NH2), the inhibition constant Ki at human GcgR is more than 230 nM; at human GLP-1R, more than 213 nM; at human GIPR, 0.237 nM.

Take `CC[C@H](C)[C@H](NC(=O)[C@H](CO)NC(=O)[C@H](Cc1ccc(O)cc1)NC(=O)[C@H](CC(=O)O)NC(=O)[C@H](CO)NC(=O)[C@@H](NC(=O)[C@](C)(Cc1ccccc1)NC(=O)[C@@H](NC(=O)CNC(=O)[C@H](CCC(=O)O)NC(=O)C(C)(C)NC(=O)[C@@H](N)Cc1ccc(O)cc1)[C@@H](C)O)[C@@H](C)CC)C(=O)N[C@@H](C)C(=O)N[C@@H](CC(C)C)C(=O)N[C@@H](CC(=O)O)C(=O)N[C@@H](CCCCN)C(=O)N[C@H](C(=O)N[C@@H](Cc1c[nH]cn1)C(=O)N[C@@H](CCC(N)=O)C(=O)NC(C)(C)C(=O)N[C@@H](CCC(=O)O)C(=O)N[C@@H](Cc1ccccc1)C(=O)N[C@H](C(=O)N[C@@H](CC(N)=O)C(=O)N[C@@H](Cc1ccc(O)cc1)C(=O)N[C@@H](CCCCNC(=O)COCCOCCNC(=O)COCCOCCNC(=O)CC[C@H](NC(=O)CCCCCCCCCCCCCCCCCCC(=O)O)C(=O)O)C(=O)N[C@@H](CC(C)C)C(=O)N[C@@H](C)C(=O)NCC(=O)NCC(=O)N1CCC[C@H]1C(=O)N[C@@H](CO)C(=O)N[C@@H](CO)C(=O)NCC(=O)N[C@@H](C)C(=O)N1CCC[C@H]1C(=O)N1CCC[C@H]1C(=O)N1CCC[C@H]1C(=O)N[C@@H](CO)C(N)=O)C(C)C)[C@@H](C)CC` [Example 97] (H-Y[Aib]EGT[αMeF]ISDYSIALDKIHQ[Aib]EFVNYK([AEEA-AEEA-γGlu-C20 diacid])LAGGPSSGAPPPS-NH2): the Ki at human GcgR is 77.5 nM; on human GLP-1R, 570 nM; at human GIPR, 0.0249 nM.

For `CC[C@H](C)[C@H](NC(=O)[C@H](Cc1ccccc1)NC(=O)[C@@H](NC(=O)CNC(=O)[C@H](CCC(=O)O)NC(=O)C(C)(C)NC(=O)[C@@H](N)Cc1ccc(O)cc1)[C@@H](C)O)C(=O)N[C@@H](CO)C(=O)N[C@@H](CC(=O)O)C(=O)N[C@@H](Cc1ccc(O)cc1)C(=O)N[C@@H](CO)C(=O)N[C@H](C(=O)N[C@@](C)(CC(C)C)C(=O)N[C@@H](CC(C)C)C(=O)N[C@@H](CC(=O)O)C(=O)N[C@@H](CCC(=O)O)C(=O)N[C@@H](CCCCNC(=O)COCCOCCNC(=O)COCCOCCNC(=O)CC[C@H](NC(=O)CCCCCCCCCCCCCCCCCCC(=O)O)C(=O)O)C(=O)N[C@@H](Cc1c[nH]cn1)C(=O)N[C@@H](CCC(N)=O)C(=O)NC(C)(C)C(=O)N[C@@H](CC(=O)O)C(=O)N[C@@H](Cc1ccccc1)C(=O)N[C@H](C(=O)N[C@@H](CCC(=O)O)C(=O)N[C@@H](Cc1ccncc1)C(=O)N[C@@H](CC(C)C)C(=O)N[C@@H](CC(C)C)C(=O)N[C@@H](C)C(=O)NCC(=O)NCC(=O)N1CCC[C@H]1C(=O)N[C@@H](CO)C(=O)N[C@@H](CO)C(=O)NCC(=O)N[C@@H](C)C(=O)N1CCC[C@H]1C(=O)N1CCC[C@H]1C(=O)N1CCC[C@H]1C(=O)N[C@@H](CO)C(N)=O)C(C)C)[C@@H](C)CC` [Example 86], the values for the Ki at human GcgR, on human GLP-1R and on human GIPR were 462 nM, 108 nM and 0.0533 nM, respectively.
